Source: patent US11059845B2, “Immune stimulating macrolides” (ISR IMMUNE SYSTEM REGULATION HOLDING AB (PUBL), priority 2017, dated 2021)

Legend:
[1] = system: Macrophages from healthy donors; assay: Cytokine/chemokine secretion from macrophages (cytometric bead assay); type: cell-based, human
Experimental: FIG. 10: Interferon-gamma secretion (as measured by cytometric bead assay) from macrophages stimulated with indicated compound for 48 h.
(§1) FIG. 11: Chemokine RANTES secretion (as measured by cytometric bead assay) from PBMC or macrophages stimulated with indicated compound for 48 h.
(§2) FIG. 12: IL12p70 secretion (as measured by cytometric bead assay) from PBMC or macrophages stimulated with indicated compound for 48 h.
(§3) FIG. 13: IL1b secretion (as measured by cytometric bead assay) from PBMC, macrophages or CD4 T cells stimulated with indicated compound for 48 h.
Study 9: Macrophages from healthy donors where exposed to compounds 1 or 2 for 48 hours. […] Compound 1 is therefore able to induce IFN-gamma secretion in macrophages from healthy donors.
(§4) Study 10: PBMCs and macrophages where exposed to compounds 1 or 2 for 2 days (FIG. 11).
(§5) Study 11: PBMCs and macrophages where exposed to compounds 1 and 2 for 2 days.
(§6) Study 12: PBMCs, macrophages and CD4+ T cells where exposed to compounds 1 and 2 for 2 days.

[2] = system: PBMCs; assay: Cytokine/chemokine secretion from PBMCs (cytometric bead assay); type: cell-based, human; conditions: 2 days
Experimental: as §1, §2, §3, §4, §5, §6

[3] = system: PBMCs; assay: Supernatant IL-10 sandwich ELISA; type: cell-based, human; conditions: 100 U/mL IL-2, 48 h and 7 days
Experimental: Supernatant IL-10 was measured with a standard sandwich ELISA (all antibodies from BD Biosciences) after 48 hours and 7 days incubation with 2.5 μM of compound 1 and 100 U/mL IL-2 (Miltenyi Biotechnologies) in complete RPMI media, 37° C., 5% CO2
Supernatant IL-10 was measured with a standard sandwich ELISA (all antibodies from BD Biosciences) after 48 hours and 7 days incubation with 2.5 uM of compound 1 and 100 U/mL IL-2 (Miltenyi Biotechnologies) in complete RPMI media, 37° C., 5% CO2.

[4] = molecular target: T1, human TLR2 (Homo sapiens, UniProt O60603); assay: TLR2 reporter assay (HEK-293-TLR, SEAP); type: cell-based
T1 construct: host or cells: recombinant HEK-293-TLR cell lines (hTLR2, NFkB-SEAP reporter)
T1 sequence (O60603 21-784): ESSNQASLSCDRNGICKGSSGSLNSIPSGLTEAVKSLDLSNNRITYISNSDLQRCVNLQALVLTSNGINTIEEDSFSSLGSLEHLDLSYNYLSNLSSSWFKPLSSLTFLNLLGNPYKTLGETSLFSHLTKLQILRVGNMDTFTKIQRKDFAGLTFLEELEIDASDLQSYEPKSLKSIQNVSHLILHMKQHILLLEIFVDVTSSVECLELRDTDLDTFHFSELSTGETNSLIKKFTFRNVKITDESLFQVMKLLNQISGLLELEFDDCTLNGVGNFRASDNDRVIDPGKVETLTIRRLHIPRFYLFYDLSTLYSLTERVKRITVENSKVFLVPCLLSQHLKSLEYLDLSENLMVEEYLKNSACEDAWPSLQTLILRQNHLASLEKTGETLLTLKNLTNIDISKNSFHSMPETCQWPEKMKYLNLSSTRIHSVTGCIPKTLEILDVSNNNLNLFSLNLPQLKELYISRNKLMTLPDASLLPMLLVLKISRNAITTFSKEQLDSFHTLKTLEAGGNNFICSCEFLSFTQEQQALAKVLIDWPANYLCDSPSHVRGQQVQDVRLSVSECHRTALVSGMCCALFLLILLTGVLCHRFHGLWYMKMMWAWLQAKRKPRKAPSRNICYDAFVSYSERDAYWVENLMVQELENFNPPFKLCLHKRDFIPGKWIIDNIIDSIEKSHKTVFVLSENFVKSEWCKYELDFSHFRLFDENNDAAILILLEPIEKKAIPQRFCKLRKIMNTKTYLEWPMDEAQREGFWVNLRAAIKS
Experimental: Samples and controls were tested in duplicate on recombinant HEK-293-TLR cell lines using a cell reporter assay at Invivogen using their standard assay conditions. These cell lines functionally over-express human TLR2 protein as well as a reporter gene which is a secreted alkaline phosphatase (SEAP). The production of this reporter gene is driven by an NFkB inducible promoter. The TLR reporter cell lines activation results are given as optical density values (OD). 20 μl of each test article were used to stimulate the hTLR2 reporter cell lines in a 200 μl of final reaction volume. Samples were tested in duplicate, with at least two concentrations tested—20 uM and 10 uM.
Compounds were tested using a TLR2 reporter assay (see general methods) that measured for stimulation of the TLR2 receptor. Stimulatory effect was measured as an increase in optical density (OD) due to release of secreted alkaline phosphatase (SEAP) and is shown in table 4: […]

[5] = system: CMV specific CD8+ T cells; assay: CMV cultures: phenotype of CMV specific CD8+ T cells; type: cell-based, human; conditions: PBMCs from CMV infected donors, CMV antigen, 6 days
Experimental: Human peripheral blood mononuclear cells (PBMCs) were purified from healthy CMV positive donors with Ficoll-Paque density centrifugation. The PBMC were labeled with 5 μM celltrace violet (Invitrogen) in PBS for 15 minutes and then washed with complete cell culture medium. The labeled PBMC was cultured in the presence of a peptide library spanning the CMV pp65 protein (1 μg peptide/ml, JPT) in AIM-V media (Invitrogen) supplemented with L-glutamine, Sodium pyruvate (Sigma), 10% fetal bovine serum, 100 μg/mL penicillin and 100 μg/mL streptomycin (Hyclone) for 6-8 days in 37° C., 5% CO2. Cell proliferation was assessed with flow cytomtery using a BD FACS Canto II flow cytometer.
Study 7: CMV virus specific T cell proliferation was also affected by compound 1. […] CD127 is crucial for T cell homeostasis, differentiation and function, and reduced expression correlates with disease severity in HIV and other chronic viral diseases (Crawley et al. 2012).

SMILES: CC[C@H]1OC(=O)[C@H](C)[C@@H](O[C@H]2C[C@@H](N(C)C)[C@H](O)[C@@H](C)O2)[C@H](C)[C@@H](O)[C@](C)(O)C[C@@H](C)CN(C)[C@H](C)[C@@H](O)[C@]1(C)O [Compound 1]
- IL-1beta secretion, macrophages ([1]; 2 days): increased
- IL-12p70 secretion, macrophages ([1]; 2 days): secreted IL-12p70
- expression of RANTES in macrophages ([1]; 2 days): induced a high expression
- IFN-gamma secretion, macrophages ([1]; 48 hours): secreted IFN-gamma
- IL-1beta secretion, PBMCs [2]: slightly
- IL-12p70 secretion, PBMCs [2]: secreted IL-12p70
- expression of RANTES in PBMCs [2]: twofold upregulation
- production of IL-10 [3]: increased production
- OD after addition of 5 μM test article ([4]; 5 μM, SEAP reporter optical density): 0.111
- OD after addition of 10 μM test article ([4]; 10 μM, SEAP reporter optical density): 0.202
- OD after addition of 20 μM test article ([4]; 20 μM, SEAP reporter optical density): 0.458
- concentrations at which TLR2 was stimulated (down to) ([4]; lowest stimulating concentration tested): ≥ 5 µM
- expression of IL-7 receptor α (CD127) on activated CMV specific CD8+ T cells [5]: increased expression
